Results reported in patent US20010024657A1, “Pharmaceutical oral patch for controlled release of pharmaceutical agents in the oral cavity” (priority 1997, published 2001).
Entries after “also recorded” stand apart in the source; their conditions may differ.

Tests used:
[1] = cited from earlier work; for solubility in buffer (in words): neutral to slightly basic, pH 7-8, high buffering capacity
[2] = In vivo release of clotrimazole from patches on the upper teeth, measured in saliva of volunteers; set-up: species or system human; settings: total dose of 10 mg clotrimazole from patches
Description: Each volunteer attached two pharmaceutical oral patches of 5 mg clotrimazole to the buccal side of the upper teeth. No food or drink was allowed during the tests. Saliva samples were expectorated at given time intervals and tested for clotrimazole by HPLC. The patch was affixed to the tooth by using a drop of a solution of Eudragit S™ in ethanol.
The in vivo release from the patches made from three formulations of differing molar ratios of NaOH were tested in vivo. Formulation 193-5 has a low level of NaOH (percent molar ratio of 11.5%) and the patch made therefrom is expected to release drug even more slowly than the patch made from formulation 193-34.

| Structure (SMILES) | solubility in water (in words) [1] | time of clinically significant levels of clotrimazole in saliva [2] | solubility in buffer (in words) [1] |
| --- | --- | --- | --- |
| Clc1ccccc1C(c1ccccc1)(c1ccccc1)n1ccnc1 [clotrimazole, Clotrimazole] | poorly water soluble | at least 6 hours |  |
| CC(C(=O)O)c1ccc(-c2ccccc2)c(F)c1 (stereo not drawn) [flurbiprofen] | poorly soluble in water; also recorded: only slightly soluble |  | soluble in buffer |
| O=C([O-])c1ccccc1O.[Na+] [sodium salicylate] | very soluble |  | very soluble |
